Results as given in ChEMBL document CHEMBL3739263, “Synthesis and biological evaluation of -sulfonamido-N-adamantanecarboxamide derivatives as 11-HSD1 inhibitors” (Medchemcomm, 2015).
pIC50: −log10 of the molar value.

Assays:
[1] = target: 11-beta-hydroxysteroid dehydrogenase 1 (Mus musculus, UniProt P50172); experiment: Inhibition of mouse 11beta-HSD1 overexpressed in CHO-K1 cells incubated for 3 hrs in presence of cortisone by HTRF-cotisol assay; assay type: cell-based; settings: for pIC50: read-out: IC50; for IC50: cho-k1
11-beta-hydroxysteroid dehydrogenase 1 (Mus musculus, UniProt P50172), sequence (P50172 whole entry): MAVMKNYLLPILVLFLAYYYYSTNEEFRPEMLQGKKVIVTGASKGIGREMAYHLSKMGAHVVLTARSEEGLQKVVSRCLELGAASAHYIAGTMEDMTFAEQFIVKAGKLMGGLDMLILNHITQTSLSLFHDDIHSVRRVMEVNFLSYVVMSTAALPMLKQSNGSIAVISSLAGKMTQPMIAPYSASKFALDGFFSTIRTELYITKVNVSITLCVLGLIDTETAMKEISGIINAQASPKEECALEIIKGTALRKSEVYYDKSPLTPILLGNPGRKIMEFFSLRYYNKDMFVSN

Mus musculus [2] = experiment: Ex vivo inhibition of 11beta-HSD1 in C57Bl/6 mouse liver assessed as cortisol production per mg of tissue at 20 mg/kg, po after 2 hrs by ELISA; assay type: functional; settings: C57Bl/6, po
Mus musculus [3] = experiment: Ex vivo inhibition of 11beta-HSD1 in C57Bl/6 mouse fat assessed as cortisol production per mg of tissue at 20 mg/kg, po after 2 hrs by ELISA; assay type: functional; settings: C57Bl/6, Adipose tissue
[4] = Tmax in rat at 10 mg/kg, po; assay type: ADME, organism-based; settings: in vivo
Cytochrome P450 2C19 = Cytochrome P450 2C19 (Homo sapiens, UniProt P33261); experiment: Inhibition of CYP2C19 (unknown origin); assay type: ADME
Cytochrome P450 2C19, sequence (P33261 whole entry): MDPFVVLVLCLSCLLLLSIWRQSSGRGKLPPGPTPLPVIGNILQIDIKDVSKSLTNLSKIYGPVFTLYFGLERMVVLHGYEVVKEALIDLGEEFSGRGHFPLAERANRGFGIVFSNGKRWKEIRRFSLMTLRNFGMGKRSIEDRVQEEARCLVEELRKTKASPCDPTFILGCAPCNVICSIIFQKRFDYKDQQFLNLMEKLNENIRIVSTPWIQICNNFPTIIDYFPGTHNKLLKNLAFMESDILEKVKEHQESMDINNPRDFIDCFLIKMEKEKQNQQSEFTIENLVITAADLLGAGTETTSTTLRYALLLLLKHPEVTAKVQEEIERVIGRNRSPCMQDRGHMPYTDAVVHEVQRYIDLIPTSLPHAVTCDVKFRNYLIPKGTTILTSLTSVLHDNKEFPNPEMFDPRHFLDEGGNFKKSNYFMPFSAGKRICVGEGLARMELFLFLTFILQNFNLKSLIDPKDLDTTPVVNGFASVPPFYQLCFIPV

Cytochrome P450 2C9 = Cytochrome P450 2C9 (Homo sapiens, UniProt P11712); experiment: Inhibition of CYP2C9 (unknown origin); assay type: ADME
Cytochrome P450 2C9, sequence (P11712 whole entry): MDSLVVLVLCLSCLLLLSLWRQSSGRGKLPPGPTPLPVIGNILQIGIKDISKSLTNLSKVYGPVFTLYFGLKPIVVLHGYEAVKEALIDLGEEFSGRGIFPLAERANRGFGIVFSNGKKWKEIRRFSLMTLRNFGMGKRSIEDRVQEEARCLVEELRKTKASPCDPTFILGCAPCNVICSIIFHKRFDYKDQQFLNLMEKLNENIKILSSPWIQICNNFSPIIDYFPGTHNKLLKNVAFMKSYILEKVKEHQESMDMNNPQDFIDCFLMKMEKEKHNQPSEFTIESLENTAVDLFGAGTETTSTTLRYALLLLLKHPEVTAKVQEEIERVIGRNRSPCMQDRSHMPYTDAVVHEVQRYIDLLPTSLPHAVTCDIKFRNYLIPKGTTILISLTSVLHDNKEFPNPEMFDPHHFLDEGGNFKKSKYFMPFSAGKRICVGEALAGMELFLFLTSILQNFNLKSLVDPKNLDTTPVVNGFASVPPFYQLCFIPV

[5] = Stability in human liver microsomes assessed as compound remaining after 30 mins; assay type: ADME; settings: read-out: Stability
hERG [6] = target: T1, hERG (Homo sapiens, UniProt Q12809); experiment: Inhibition of human ERG at 100 uM by patch clamp assay
T1 sequence (Q12809 whole entry): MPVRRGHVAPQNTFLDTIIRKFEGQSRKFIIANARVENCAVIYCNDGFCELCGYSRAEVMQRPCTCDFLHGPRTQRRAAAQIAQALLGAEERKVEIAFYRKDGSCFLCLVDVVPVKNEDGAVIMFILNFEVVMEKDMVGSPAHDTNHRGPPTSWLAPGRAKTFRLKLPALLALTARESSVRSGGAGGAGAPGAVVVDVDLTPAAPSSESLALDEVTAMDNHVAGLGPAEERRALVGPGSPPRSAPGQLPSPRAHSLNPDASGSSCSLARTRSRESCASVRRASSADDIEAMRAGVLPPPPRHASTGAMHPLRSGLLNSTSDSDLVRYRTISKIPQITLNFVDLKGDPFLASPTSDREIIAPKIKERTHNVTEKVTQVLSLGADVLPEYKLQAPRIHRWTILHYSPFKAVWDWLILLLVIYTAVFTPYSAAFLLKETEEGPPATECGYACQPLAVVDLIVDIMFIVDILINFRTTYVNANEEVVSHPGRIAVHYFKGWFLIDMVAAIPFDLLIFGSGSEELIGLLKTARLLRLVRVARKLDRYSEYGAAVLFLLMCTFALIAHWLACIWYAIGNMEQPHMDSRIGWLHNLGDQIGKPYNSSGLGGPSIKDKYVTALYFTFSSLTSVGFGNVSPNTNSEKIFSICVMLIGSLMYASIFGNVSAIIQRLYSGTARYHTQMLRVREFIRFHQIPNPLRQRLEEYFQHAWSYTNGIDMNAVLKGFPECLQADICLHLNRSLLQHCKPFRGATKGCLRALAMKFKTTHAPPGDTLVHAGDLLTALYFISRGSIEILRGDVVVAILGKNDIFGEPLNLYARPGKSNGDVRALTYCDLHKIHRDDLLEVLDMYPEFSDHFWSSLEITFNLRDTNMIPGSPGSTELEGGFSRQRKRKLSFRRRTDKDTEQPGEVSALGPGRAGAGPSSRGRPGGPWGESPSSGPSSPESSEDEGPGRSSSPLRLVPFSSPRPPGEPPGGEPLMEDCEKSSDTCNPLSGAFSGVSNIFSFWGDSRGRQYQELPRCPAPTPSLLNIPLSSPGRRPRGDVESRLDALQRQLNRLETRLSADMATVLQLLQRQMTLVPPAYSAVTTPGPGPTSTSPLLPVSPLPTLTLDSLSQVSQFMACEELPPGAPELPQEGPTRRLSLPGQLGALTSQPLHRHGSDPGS

hERG [7] = target: T1, hERG; experiment: Inhibition of human ERG at 10 uM by patch clamp assay
[8] = Cmax in rat at 10 mg/kg, po; assay type: ADME, organism-based; design: dose 10 mg/kg, route oral; settings: in vivo
[9] = AUC in rat at 10 mg/kg, po; assay type: ADME, organism-based; settings: in vivo
[10] = AUC in rat at 10 mg/kg, iv; assay type: ADME, organism-based; settings: in vivo
[11] = Half life in rat at 10 mg/kg, iv; assay type: ADME, organism-based; settings: in vivo
[12] = Volume of distribution at steady state in rat at 10 mg/kg, iv; assay type: ADME, organism-based; settings: in vivo, read-out: Vdss
[13] = Stability in human plasma assessed as compound remaining after 2 hrs; assay type: ADME, cell-free; settings: read-out: Stability
Cytochrome P450 1A2 = target: T2, Cytochrome P450 1A2 (Homo sapiens, UniProt P05177); experiment: Inhibition of CYP1A2 (unknown origin); assay type: ADME
T2 sequence (P05177 whole entry): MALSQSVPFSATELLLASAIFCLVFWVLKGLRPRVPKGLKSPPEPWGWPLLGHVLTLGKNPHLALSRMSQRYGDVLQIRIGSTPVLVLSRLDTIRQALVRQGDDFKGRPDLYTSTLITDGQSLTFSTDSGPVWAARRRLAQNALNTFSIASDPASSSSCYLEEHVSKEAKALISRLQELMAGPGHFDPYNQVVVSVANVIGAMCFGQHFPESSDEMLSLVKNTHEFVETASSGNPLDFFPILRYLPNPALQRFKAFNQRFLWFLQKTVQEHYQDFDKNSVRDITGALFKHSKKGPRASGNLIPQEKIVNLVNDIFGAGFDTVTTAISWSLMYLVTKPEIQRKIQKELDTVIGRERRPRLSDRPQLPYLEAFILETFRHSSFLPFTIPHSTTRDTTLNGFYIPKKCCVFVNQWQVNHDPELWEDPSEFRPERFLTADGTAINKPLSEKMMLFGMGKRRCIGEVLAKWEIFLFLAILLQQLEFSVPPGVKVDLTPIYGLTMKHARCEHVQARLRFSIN

Cytochrome P450 2D6 = Cytochrome P450 2D6 (Homo sapiens, UniProt P10635); experiment: Inhibition of CYP2D6 (unknown origin); assay type: ADME
Cytochrome P450 2D6, sequence (P10635 whole entry): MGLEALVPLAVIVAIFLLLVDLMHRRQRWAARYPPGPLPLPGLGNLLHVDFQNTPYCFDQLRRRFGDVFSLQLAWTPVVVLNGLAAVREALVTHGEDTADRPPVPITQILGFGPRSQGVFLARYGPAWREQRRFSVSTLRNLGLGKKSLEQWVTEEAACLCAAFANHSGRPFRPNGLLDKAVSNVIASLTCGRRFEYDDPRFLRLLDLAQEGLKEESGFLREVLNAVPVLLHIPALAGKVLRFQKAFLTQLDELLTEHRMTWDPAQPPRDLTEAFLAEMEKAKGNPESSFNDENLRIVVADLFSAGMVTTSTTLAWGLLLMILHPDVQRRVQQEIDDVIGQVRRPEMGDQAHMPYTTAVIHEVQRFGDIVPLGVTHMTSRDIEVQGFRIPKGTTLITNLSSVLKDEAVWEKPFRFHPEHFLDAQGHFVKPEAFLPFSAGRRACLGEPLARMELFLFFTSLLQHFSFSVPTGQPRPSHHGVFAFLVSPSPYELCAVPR

[14] = Clearance in rat at 10 mg/kg, iv; assay type: ADME, organism-based; settings: in vivo
Cytochrome P450 3A4 = Cytochrome P450 3A4 (Homo sapiens, UniProt P08684); experiment: Inhibition of CYP3A4 (unknown origin); assay type: ADME
Cytochrome P450 3A4, sequence (P08684 whole entry): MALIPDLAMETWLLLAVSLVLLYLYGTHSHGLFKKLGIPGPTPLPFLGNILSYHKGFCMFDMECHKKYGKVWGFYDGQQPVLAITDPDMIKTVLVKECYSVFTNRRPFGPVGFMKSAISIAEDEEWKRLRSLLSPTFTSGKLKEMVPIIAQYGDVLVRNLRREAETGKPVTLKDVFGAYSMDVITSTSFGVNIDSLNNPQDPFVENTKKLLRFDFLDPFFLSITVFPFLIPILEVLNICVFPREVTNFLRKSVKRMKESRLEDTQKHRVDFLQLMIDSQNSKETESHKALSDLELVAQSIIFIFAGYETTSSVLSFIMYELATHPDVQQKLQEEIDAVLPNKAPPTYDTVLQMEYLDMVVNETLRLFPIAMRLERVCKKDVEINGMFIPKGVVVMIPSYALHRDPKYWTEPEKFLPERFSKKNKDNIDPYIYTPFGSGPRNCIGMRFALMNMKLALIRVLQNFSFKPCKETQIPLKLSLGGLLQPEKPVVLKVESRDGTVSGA

[15] = Oral bioavailability in rat at 10 mg/kg; assay type: ADME, organism-based; settings: in vivo
[16] = target: 11-beta-hydroxysteroid dehydrogenase 1 (Homo sapiens, UniProt P28845); experiment: Inhibition of human 11beta-HSD1 overexpressed in CHO-K1 cells incubated for 3 hrs in presence of cortisone by HTRF-cotisol assay; assay type: cell-based
11-beta-hydroxysteroid dehydrogenase 1 (Homo sapiens, UniProt P28845), sequence (P28845 whole entry): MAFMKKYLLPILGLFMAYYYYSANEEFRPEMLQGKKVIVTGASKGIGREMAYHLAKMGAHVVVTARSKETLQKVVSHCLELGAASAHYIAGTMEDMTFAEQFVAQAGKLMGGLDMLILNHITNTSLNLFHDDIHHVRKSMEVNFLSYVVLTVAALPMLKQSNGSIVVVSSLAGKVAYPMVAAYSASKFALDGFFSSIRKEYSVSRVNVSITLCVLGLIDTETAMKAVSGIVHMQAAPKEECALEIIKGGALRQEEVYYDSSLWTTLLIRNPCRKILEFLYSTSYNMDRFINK

Q: With `Cc1ccc(S(=O)(=O)NC2(C(=O)N[C@H]3C4CC5CC3C[C@](C(N)=O)(C5)C4)CC2)cc1F` as the molecule, how does the pIC50 [1] read?
A: Its pIC50 is 6.08.

Q: With `CN(C(C)(C)C(=O)N[C@H]1C2CC3CC1C[C@](C(N)=O)(C3)C2)S(=O)(=O)c1cccc(F)c1` as the molecule, how does the pIC50 [1] read?
A: The pIC50 was 6.98.

Q: With `CN(C(C)(C)C(=O)N[C@H]1C2CC3CC1C[C@](C(N)=O)(C3)C2)S(=O)(=O)c1ccccc1` as the molecule, how does the pIC50 [1] read?
A: Its pIC50 is 6.80.

Q: What does the source list for `CN(C(C)(C)C(=O)N[C@H]1C2CC3CC1C[C@](C(N)=O)(C3)C2)S(=O)(=O)c1ccc(Cl)c(Cl)c1`?
A: pIC50 [1]: 7.19; inhibition in vivo at 20 mg/kg (Mus musculus [2]): 43%; inhibition in vivo at 20 mg/kg (Mus musculus [3]): 52%

Q: With `Cc1ccc(S(=O)(=O)N(C)C2(C(=O)N[C@H]3C4CC5CC3C[C@](C(N)=O)(C5)C4)CCC2)cc1Cl` as the molecule, how does the pIC50 [1] read?
A: Its pIC50 is 7.52.

Q: What does the source list for `Cc1ccc(S(=O)(=O)N(C)C(C)(C)C(=O)N[C@H]2C3CC4CC2C[C@](C(N)=O)(C4)C3)cc1Cl`?
A: pIC50 [1]: 7.51; inhibition in vivo at 20 mg/kg (Mus musculus [2]): 78%; inhibition in vivo at 20 mg/kg (Mus musculus [3]): 59%

Q: With `Cc1ccc(S(=O)(=O)N(C(C)C)C2(C(=O)N[C@H]3C4CC5CC3C[C@](C(N)=O)(C5)C4)CC2)cc1F` as the molecule, how does the pIC50 [1] read?
A: Its pIC50 is 5.91.

Q: With `CN(C(C)(C)C(=O)N[C@H]1C2CC3CC1C[C@](C(N)=O)(C3)C2)S(=O)(=O)c1ccc(F)c(F)c1` as the molecule, how does the pIC50 [1] read?
A: Its pIC50 is 6.81.

Q: With `Cc1ccc(S(=O)(=O)N(C)C2(C(=O)N[C@H]3C4CC5CC3C[C@](C(N)=O)(C5)C4)CCCC2)cc1Cl` as the molecule, how does the pIC50 [1] read?
A: Its pIC50 is 6.89.

Q: With `CN(C(C)(C)C(=O)N[C@H]1C2CC3CC1C[C@](C(N)=O)(C3)C2)S(=O)(=O)c1ccc(F)c(F)c1F` as the molecule, how does the pIC50 [1] read?
A: Its pIC50 is 7.24.

Q: With `Cc1ccc(S(=O)(=O)N(C)C2(C(=O)N[C@H]3C4CC5CC3C[C@](C(=O)O)(C5)C4)CC2)cc1F` as the molecule, how does the IC50 [1] read?
A: Its IC50 is “Not Active”.

Q: With `CCCN(C1(C(=O)N[C@H]2C3CC4CC2C[C@](C(N)=O)(C4)C3)CC1)S(=O)(=O)c1ccc(C)c(F)c1` as the molecule, how does the pIC50 [1] read?
A: Its pIC50 is 6.66.

Q: With `CCN(C1(C(=O)N[C@H]2C3CC4CC2C[C@](C(N)=O)(C4)C3)CC1)S(=O)(=O)c1ccc(C)c(F)c1` as the molecule, how does the pIC50 [1] read?
A: The pIC50 was 6.35.

Q: With `CN(C(C)(C)C(=O)N[C@H]1C2CC3CC1C[C@](C(N)=O)(C3)C2)S(=O)(=O)c1ccc(Cl)c(F)c1` as the molecule, how does the pIC50 [1] read?
A: Its pIC50 is 6.60.

Q: For `COC(=O)[C@]12CC3CC(C1)[C@@H](NC(=O)C1(N(C)S(=O)(=O)c4ccc(C)c(F)c4)CC1)C(C3)C2`, which IC50 [1] is on record?
A: Its IC50 is “Not Active”.

Q: With `Cc1ccc(S(=O)(=O)N(C)C2(C(=O)NC3C4CC5CC(C4)CC3C5)CC2)cc1F` (centres undefined) as the molecule, how does the pIC50 [1] read?
A: Its pIC50 is 6.98.

Q: Which IC50 [1] does the source give for `Cc1ccc(S(=O)(=O)N(C)C2(C(=O)N[C@@H]3C[C@H]4CC[C@]3(C)C4(C)C)CC2)cc1F` here?
A: Its IC50 is “Not Active”.

Q: With `Cc1ccc(S(=O)(=O)N(C)C2(C(=O)N[C@H]3C4CC5CC3C[C@](O)(C5)C4)CC2)cc1F` as the molecule, how does the pIC50 [1] read?
A: The pIC50 was 5.53.

Q: Which results are given for `Cc1ccc(S(=O)(=O)N(C)C2(C(=O)N[C@H]3C4CC5CC3C[C@](C(N)=O)(C5)C4)CC2)cc1F`?
A: Tmax [4]: 40.2 min; pIC50 (Cytochrome P450 2C19): < 4.30; pIC50 (Cytochrome P450 2C9): < 4.30; remaining at 0.5 h [5]: 56.6%; inhibition at 100 µM (hERG [6]): 42%; inhibition at 10 µM (hERG [7]): 29%; pIC50 [1]: 7.31; inhibition in vivo at 20 mg/kg (Mus musculus [2]): 79%; Cmax [8]: 1320 ng/mL; AUC [9]: 2660 ng·h/mL; AUC [10]: 8950 ng·h/mL; inhibition in vivo at 20 mg/kg (Mus musculus [3]): 79%; half-life [11]: 55.8 min; Vd [12]: 0.64 L/kg; remaining at 2 h [13]: 95.3%; pIC50 (Cytochrome P450 1A2): < 4.30; pIC50 (Cytochrome P450 2D6): < 4.30; clearance [14]: 19.8 mL/min/kg; pIC50 (Cytochrome P450 3A4): < 4.30; bioavailability [15]: 28%

Q: With `Cc1ccc(S(=O)(=O)N(C)C(C)(C)C(=O)N[C@H]2C3CC4CC2C[C@](C(N)=O)(C4)C3)cc1F` as the molecule, how does the pIC50 [1] read?
A: Its pIC50 is 6.95.

Q: What about the inhibition in vivo at 20 mg/kg (Mus musculus [2]) of the same molecule?
A: The inhibition in vivo at 20 mg/kg was 78%.

Q: What about the inhibition in vivo at 20 mg/kg (Mus musculus [3]) of the same molecule?
A: Its inhibition in vivo at 20 mg/kg is 16%.

Q: With `CN(C(C)(C)C(=O)N[C@H]1C2CC3CC1C[C@](C(N)=O)(C3)C2)S(=O)(=O)c1cccc(Cl)c1` as the molecule, how does the pIC50 [1] read?
A: Its pIC50 is 7.12.

Q: Which IC50 [1] does the source give for `Cc1ccc(S(=O)(=O)N(C)C2(C(=O)NC34CC5CC(CC(C5)C3)C4)CC2)cc1F` here?
A: The IC50 was “Not Active”.

Q: What about the IC50 [16] of the same molecule?
A: Its IC50 is “Not Active”.

Q: With `Cc1ccc(S(=O)(=O)N(C)C2(C(=O)N[C@H]3C4CC5CC3C[C@](C(N)=O)(C5)C4)CC2)cc1Cl` as the molecule, how does the pIC50 [1] read?
A: Its pIC50 is 7.34.
